“Also recorded” adds a separate entry of the source. Where two headings read alike, the source gives them in different places.
Legend:
[1] = cats; ref Parton et al., 2000; cited from earlier work
[2] = humans; ref Trnavsky and Zachar, 1975; cited from earlier work
[3] = tested on: recombinant human P450s 2C8, 2C9, 2C19, 2D6, 2E1, and 3A4; details: recombinant enzyme
[4] = dogs; ref Parton et al., 2000; cited from earlier work
[5] = tested on: P450 2C19; details: 50 mg/day for 14 days; in vivo mephenytoin oxidation; ref Chen et al., 2003; cited from earlier work
[6] = tested on: human liver microsomes; assay type: in vitro ADME
[7] = various animals; ref Trnavsky and Zachar, 1975; cited from earlier work
[8] = tested on: human liver microsomes; assay type: in vitro ADME; details: 100 μM desferrioxamine, Chelex 100-treated buffers, 0.5 nmol microsomal P450, 30 minutes
[9] = humans; ref Hutt et al., 1986; cited from earlier work
[10] = fluorescence detection, aspirin after deacetylation

CC(=O)Oc1ccccc1C(=O)O [Aspirin, acetylsalicylic acid]
half-life [1]: 22 h | half-life [2]: ~ 6 h | concentrations of the products with recombinant P450s [3]: too low to quantitate | half-life [4]: 7.5 h | effect on P450 2C19 [5]: increase | product formation (2,3-DHBA or 2,5-DHBA) in the absence of NADPH [6]: No product formation | maximum rate of 5-hydroxylation compared with salicylic acid ([6]; data not shown): approximately five times lower | 2,5-DHBA formation with NADPH [6, 10]: detected | half-life [7]: 1 to 38 h

CC(=O)N(O)CCCCCNC(=O)CCC(=O)N(O)CCCCCNC(=O)CCC(=O)N(O)CCCCCN [desferrioxamine]
effect on formation of 2,3- and 2,5-DHBA [8]: did not inhibit but instead increased; also recorded: no inhibition

O=C(O)c1ccccc1O [salicylic acid]
directly excreted [9]: 1–31% | product formation (2,3-DHBA or 2,5-DHBA) in the absence of NADPH [6]: not detected | 2,3-DHBA formation with NADPH [6, 10]: detected | 2,5-DHBA formation with NADPH [6, 10]: detected

O=C(O)CNC(=O)c1ccccc1O [salicyluric acid]
share of the products of salicylic acid metabolism [9]: 20–65%

Reference: publication PMC4414920 (European journal of pharmaceutical sciences : official …, 2015)
